{
  "source": "patent US20130338106A1",
  "about": "“COMPOUNDS INHIBITING LEUCINE-RICH REPEAT KINASE ENZYME ACTIVITY” (priority 2011, published 2013)",
  "type_in_all_cases": "biochemical",
  "conditions_in_all_cases": "tested at 10 uM, read-out: percent inhibition of the kinase activity",
  "key": {"CDK2": {"biological_target": "T1, CDK2 (Homo sapiens, UniProt P24941)", "T1 construct": "purchased Caliper LifeSciences", "assay": "ProfilerPro Kinase Selectivity, CDK2", "protocol": "(§1) Kinome selectivity profiling was performed using two example compounds according to the manufacturer's instructions using Caliper LifeSciences' ProfilerPro Kinase Selectivity Assay Kits. Compounds prepared in Examples 1 and 7 were tested at 10 uM and data were recorded using the Caliper LabChip® EZ Reader™. Each compounds' percent inhibition of the kinase activity measured in this manner is reported in the following lists."}, "PRKCG": {"biological_target": "T2, PRKCG (Homo sapiens, UniProt P05129)", "T2 construct": "purchased Caliper LifeSciences", "assay": "ProfilerPro Kinase Selectivity, PRKCG", "protocol": "as §1"}, "FGFR2 N549H": {"biological_target": "T3, FGFR2 N549H (Homo sapiens, UniProt P21802, N549H)", "T3 construct": "purchased Caliper LifeSciences", "assay": "ProfilerPro Kinase Selectivity, FGFR2 N549H", "protocol": "as §1"}, "EGFR T790M": {"biological_target": "T4, EGFR T790M (Homo sapiens, UniProt P00533, T790M)", "T4 construct": "purchased Caliper LifeSciences", "T4 sequence (P00533 25-1210 T790M)": "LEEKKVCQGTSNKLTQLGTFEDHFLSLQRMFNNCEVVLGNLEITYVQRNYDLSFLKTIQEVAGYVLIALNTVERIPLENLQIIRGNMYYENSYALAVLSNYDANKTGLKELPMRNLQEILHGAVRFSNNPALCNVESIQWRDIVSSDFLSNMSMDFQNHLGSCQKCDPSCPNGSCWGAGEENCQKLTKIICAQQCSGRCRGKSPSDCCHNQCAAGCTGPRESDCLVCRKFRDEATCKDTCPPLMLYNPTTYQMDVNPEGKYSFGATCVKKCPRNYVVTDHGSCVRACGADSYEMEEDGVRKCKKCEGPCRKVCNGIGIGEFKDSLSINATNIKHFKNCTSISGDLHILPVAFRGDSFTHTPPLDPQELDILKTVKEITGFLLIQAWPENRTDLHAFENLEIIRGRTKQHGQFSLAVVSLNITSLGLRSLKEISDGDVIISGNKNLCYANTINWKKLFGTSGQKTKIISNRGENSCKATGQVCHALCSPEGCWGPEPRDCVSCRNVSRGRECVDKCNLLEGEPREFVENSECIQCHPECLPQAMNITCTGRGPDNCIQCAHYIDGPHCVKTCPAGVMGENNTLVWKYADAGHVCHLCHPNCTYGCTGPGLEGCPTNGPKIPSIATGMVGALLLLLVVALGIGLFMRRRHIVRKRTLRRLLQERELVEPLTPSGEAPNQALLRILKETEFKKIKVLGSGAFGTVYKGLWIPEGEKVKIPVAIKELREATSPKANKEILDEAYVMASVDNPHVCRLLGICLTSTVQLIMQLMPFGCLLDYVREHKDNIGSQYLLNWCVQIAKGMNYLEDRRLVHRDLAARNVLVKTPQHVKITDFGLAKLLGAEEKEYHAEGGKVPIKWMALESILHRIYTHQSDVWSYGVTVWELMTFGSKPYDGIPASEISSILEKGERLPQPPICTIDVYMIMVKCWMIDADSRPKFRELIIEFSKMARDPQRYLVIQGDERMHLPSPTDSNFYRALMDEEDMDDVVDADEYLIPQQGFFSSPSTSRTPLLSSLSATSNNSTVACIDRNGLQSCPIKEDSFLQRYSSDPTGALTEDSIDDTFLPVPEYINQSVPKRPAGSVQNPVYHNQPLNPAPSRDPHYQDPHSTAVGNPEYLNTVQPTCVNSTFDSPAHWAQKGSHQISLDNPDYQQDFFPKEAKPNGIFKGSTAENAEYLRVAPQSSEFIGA", "assay": "ProfilerPro Kinase Selectivity, EGFR T790M", "protocol": "as §1"}, "SGK": {"biological_target": "T5, SGK (Homo sapiens, UniProt O00141)", "T5 construct": "purchased Caliper LifeSciences", "assay": "ProfilerPro Kinase Selectivity, SGK", "protocol": "as §1"}, "CDK1/CYCB1": {"biological_target": "T6, CDK1/CYCB1 (Homo sapiens, UniProt P06493)", "T6 construct": "purchased Caliper LifeSciences", "assay": "ProfilerPro Kinase Selectivity, CDK1/CYCB1", "protocol": "as §1"}, "PDGFRB": {"biological_target": "T7, PDGFRB (Homo sapiens, UniProt P09619)", "T7 construct": "purchased Caliper LifeSciences", "assay": "ProfilerPro Kinase Selectivity, PDGFRB", "protocol": "as §1"}, "LTK": {"biological_target": "T8, LTK (Homo sapiens, UniProt P29376)", "T8 construct": "purchased Caliper LifeSciences", "assay": "ProfilerPro Kinase Selectivity, LTK", "protocol": "as §1"}, "EPHA5": {"biological_target": "T9, EPHA5 (Homo sapiens, UniProt P54756)", "T9 construct": "purchased Caliper LifeSciences", "T9 sequence (P54756 25-1037, species assumed)": "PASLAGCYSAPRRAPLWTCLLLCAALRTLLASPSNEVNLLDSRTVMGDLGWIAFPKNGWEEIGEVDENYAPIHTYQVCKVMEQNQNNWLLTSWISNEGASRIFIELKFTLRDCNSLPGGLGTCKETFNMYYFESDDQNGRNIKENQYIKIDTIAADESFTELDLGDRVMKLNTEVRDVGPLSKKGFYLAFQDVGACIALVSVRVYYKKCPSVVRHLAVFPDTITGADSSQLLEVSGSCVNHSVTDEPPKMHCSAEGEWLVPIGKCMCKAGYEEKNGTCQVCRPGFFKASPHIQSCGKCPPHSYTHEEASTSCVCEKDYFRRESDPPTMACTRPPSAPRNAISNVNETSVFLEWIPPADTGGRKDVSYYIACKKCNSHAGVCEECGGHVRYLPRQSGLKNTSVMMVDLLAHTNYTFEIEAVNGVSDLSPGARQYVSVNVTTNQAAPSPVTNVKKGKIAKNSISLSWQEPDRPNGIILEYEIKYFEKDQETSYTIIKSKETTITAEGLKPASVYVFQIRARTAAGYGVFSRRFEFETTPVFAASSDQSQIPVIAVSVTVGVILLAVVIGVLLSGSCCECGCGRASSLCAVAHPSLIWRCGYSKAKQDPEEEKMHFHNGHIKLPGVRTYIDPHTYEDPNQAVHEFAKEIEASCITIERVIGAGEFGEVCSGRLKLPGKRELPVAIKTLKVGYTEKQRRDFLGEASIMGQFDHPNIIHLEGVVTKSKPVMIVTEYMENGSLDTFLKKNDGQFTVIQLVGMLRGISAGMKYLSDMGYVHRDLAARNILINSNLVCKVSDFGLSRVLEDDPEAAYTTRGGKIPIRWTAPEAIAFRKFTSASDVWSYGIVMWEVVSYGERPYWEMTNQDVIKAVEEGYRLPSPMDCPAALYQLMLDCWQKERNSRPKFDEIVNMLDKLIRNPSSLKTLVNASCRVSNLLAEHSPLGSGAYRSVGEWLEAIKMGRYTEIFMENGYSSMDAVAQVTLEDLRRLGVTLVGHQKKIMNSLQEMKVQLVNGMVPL", "assay": "ProfilerPro Kinase Selectivity, EPHA5", "protocol": "as §1"}, "MARK1": {"biological_target": "T10, MARK1 (Homo sapiens, UniProt Q9P0L2)", "T10 construct": "purchased Caliper LifeSciences", "assay": "ProfilerPro Kinase Selectivity, MARK1", "protocol": "as §1"}, "AXL": {"biological_target": "T11, AXL (Homo sapiens, UniProt P30530)", "T11 construct": "purchased Caliper LifeSciences", "assay": "ProfilerPro Kinase Selectivity, AXL", "protocol": "as §1"}, "ARG": {"biological_target": "T12, ARG (Homo sapiens, UniProt P42684)", "T12 construct": "purchased Caliper LifeSciences", "assay": "ProfilerPro Kinase Selectivity, ARG", "protocol": "as §1"}, "P38A": {"biological_target": "T13, P38A (Homo sapiens, UniProt Q16539)", "T13 construct": "purchased Caliper LifeSciences", "T13 sequence (Q16539 2-360 limits assumed)": "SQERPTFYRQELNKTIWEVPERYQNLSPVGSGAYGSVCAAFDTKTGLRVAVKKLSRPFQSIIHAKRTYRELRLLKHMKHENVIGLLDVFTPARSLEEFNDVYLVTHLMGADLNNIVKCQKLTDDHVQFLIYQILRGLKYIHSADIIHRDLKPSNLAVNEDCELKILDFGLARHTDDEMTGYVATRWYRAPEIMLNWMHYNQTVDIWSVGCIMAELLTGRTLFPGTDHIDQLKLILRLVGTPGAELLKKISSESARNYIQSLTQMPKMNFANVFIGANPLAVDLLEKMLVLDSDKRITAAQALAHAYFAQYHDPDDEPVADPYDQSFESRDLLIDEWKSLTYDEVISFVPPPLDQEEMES", "assay": "ProfilerPro Kinase Selectivity, P38A", "protocol": "as §1"}, "CHK2": {"biological_target": "T14, CHK2 (Homo sapiens, UniProt O96017)", "T14 construct": "purchased Caliper LifeSciences", "assay": "ProfilerPro Kinase Selectivity, CHK2", "protocol": "as §1"}, "EPHA2": {"biological_target": "T15, EPHA2 (Homo sapiens, UniProt P29317)", "T15 construct": "purchased Caliper LifeSciences", "T15 sequence (P29317 24-976, species assumed)": "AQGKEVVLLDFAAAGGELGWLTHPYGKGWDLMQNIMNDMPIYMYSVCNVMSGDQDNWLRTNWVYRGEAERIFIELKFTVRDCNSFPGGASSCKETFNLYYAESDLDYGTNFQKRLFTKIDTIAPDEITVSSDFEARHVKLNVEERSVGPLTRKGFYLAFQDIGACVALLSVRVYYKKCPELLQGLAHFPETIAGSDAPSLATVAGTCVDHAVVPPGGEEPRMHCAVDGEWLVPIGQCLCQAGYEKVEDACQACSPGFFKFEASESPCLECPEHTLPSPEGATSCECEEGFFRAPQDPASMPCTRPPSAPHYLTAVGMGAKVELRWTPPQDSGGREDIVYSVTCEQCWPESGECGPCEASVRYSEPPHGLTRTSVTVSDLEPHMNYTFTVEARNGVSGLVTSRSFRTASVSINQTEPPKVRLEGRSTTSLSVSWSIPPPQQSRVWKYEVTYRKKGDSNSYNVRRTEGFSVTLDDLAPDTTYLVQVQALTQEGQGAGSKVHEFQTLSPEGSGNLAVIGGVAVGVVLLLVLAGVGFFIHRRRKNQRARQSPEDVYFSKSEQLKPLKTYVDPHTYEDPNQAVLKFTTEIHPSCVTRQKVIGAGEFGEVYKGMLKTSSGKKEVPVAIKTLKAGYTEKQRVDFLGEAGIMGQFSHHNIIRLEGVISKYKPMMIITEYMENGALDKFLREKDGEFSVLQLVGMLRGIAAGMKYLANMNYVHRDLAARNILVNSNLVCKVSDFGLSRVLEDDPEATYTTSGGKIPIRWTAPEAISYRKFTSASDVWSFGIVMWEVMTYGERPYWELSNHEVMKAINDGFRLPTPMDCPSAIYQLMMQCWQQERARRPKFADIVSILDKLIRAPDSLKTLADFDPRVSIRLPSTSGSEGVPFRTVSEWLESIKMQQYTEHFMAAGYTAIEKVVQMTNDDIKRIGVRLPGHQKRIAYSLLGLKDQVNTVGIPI", "assay": "ProfilerPro Kinase Selectivity, EPHA2", "protocol": "as §1"}, "ABL H396P": {"biological_target": "T16, ABL H396P (Homo sapiens, UniProt P00519, H396P)", "T16 construct": "purchased Caliper LifeSciences", "assay": "ProfilerPro Kinase Selectivity, ABL H396P", "protocol": "as §1"}, "RET Y791F": {"biological_target": "T17, RET Y791F (Homo sapiens, UniProt P07949, Y791F)", "T17 construct": "purchased Caliper LifeSciences", "T17 sequence (P07949 29-1114 Y791F)": "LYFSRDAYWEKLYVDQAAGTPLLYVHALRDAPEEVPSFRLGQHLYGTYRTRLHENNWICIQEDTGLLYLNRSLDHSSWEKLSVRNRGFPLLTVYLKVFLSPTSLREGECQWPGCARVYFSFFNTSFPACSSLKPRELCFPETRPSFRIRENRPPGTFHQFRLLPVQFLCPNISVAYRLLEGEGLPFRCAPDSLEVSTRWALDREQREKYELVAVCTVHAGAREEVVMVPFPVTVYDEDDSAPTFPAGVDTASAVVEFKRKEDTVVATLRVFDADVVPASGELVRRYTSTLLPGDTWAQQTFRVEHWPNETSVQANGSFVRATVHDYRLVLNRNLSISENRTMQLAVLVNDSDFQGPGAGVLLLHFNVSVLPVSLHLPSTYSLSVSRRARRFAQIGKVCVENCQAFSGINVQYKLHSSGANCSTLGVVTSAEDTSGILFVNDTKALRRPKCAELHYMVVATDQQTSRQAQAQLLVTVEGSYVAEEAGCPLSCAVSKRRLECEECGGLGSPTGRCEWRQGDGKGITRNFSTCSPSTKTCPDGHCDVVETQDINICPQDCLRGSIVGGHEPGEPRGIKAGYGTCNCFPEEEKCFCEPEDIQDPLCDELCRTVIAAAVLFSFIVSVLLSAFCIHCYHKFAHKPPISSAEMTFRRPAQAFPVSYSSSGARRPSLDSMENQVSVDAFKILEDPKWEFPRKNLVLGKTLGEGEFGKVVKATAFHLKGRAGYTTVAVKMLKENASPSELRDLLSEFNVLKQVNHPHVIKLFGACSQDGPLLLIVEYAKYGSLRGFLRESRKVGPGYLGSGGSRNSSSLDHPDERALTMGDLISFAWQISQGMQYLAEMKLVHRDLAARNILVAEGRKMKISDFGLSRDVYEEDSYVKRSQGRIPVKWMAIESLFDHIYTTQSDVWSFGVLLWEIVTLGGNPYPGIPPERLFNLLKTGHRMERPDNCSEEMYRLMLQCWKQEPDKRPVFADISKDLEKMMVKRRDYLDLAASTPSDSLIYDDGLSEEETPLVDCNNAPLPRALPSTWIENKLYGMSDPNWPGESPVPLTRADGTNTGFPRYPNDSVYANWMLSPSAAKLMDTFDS", "assay": "ProfilerPro Kinase Selectivity, RET Y791F", "protocol": "as §1"}, "PIM-3": {"biological_target": "T18, PIM-3 (Homo sapiens, UniProt Q86V86)", "T18 construct": "purchased Caliper LifeSciences", "assay": "ProfilerPro Kinase Selectivity, PIM-3", "protocol": "as §1"}, "ROS": {"biological_target": "T19, ROS (Homo sapiens, UniProt P08922)", "T19 construct": "purchased Caliper LifeSciences", "assay": "ProfilerPro Kinase Selectivity, ROS", "protocol": "as §1"}, "CAMK4": {"biological_target": "T20, CAMK4 (Homo sapiens, UniProt Q16566)", "T20 construct": "purchased Caliper LifeSciences", "assay": "ProfilerPro Kinase Selectivity, CAMK4", "protocol": "as §1"}, "ABL1 Y253F": {"biological_target": "T21, ABL1 Y253F (Homo sapiens, UniProt P00519, Y253F)", "T21 construct": "purchased Caliper LifeSciences", "assay": "ProfilerPro Kinase Selectivity, ABL1 Y253F", "protocol": "as §1"}},
  "data": [
    {"smiles": "CSc1sc(-c2cc[nH]n2)c2c1C(=O)CCC2", "note": "[Example 1, 3-(Methylsulfanyl)-1-(1H-pyrazol-3-yl)-6,7-dihydro-2-benzothiophen-4(5H)-one]", "values": [
      {"measurement": "inhibition at 10 µM", "setting": "CDK2", "result": 18.4, "unit": "%"},
      {"measurement": "inhibition at 10 µM", "setting": "PRKCG", "result": 10, "unit": "%"},
      {"measurement": "inhibition at 10 µM", "setting": "FGFR2 N549H", "result": 1.4, "unit": "%"},
      {"measurement": "inhibition at 10 µM", "setting": "EGFR T790M", "result": 1.8, "unit": "%"},
      {"measurement": "inhibition at 10 µM", "setting": "SGK", "result": -5.1, "unit": "%"},
      {"measurement": "inhibition at 10 µM", "setting": "CDK1/CYCB1", "result": 5.3, "unit": "%"},
      {"measurement": "inhibition at 10 µM", "setting": "PDGFRB", "result": 22.1, "unit": "%"},
      {"measurement": "inhibition at 10 µM", "setting": "LTK", "result": 16, "unit": "%"},
      {"measurement": "inhibition at 10 µM", "setting": "EPHA5", "result": -3.1, "unit": "%"},
      {"measurement": "inhibition at 10 µM", "setting": "MARK1", "result": -2.9, "unit": "%"},
      {"measurement": "inhibition at 10 µM", "setting": "AXL", "result": 13.5, "unit": "%"},
      {"measurement": "inhibition at 10 µM", "setting": "ARG", "result": -6, "unit": "%"},
      {"measurement": "inhibition at 10 µM", "setting": "P38A", "result": -2.3, "unit": "%"},
      {"measurement": "inhibition at 10 µM", "setting": "CHK2", "result": 48.7, "unit": "%"},
      {"measurement": "inhibition at 10 µM", "setting": "EPHA2", "result": 0.7, "unit": "%"},
      {"measurement": "inhibition at 10 µM", "setting": "ABL H396P", "result": 10.3, "unit": "%"},
      {"measurement": "inhibition at 10 µM", "setting": "RET Y791F", "result": 37.6, "unit": "%"},
      {"measurement": "inhibition at 10 µM", "setting": "PIM-3", "result": 23.7, "unit": "%"},
      {"measurement": "inhibition at 10 µM", "setting": "ROS", "result": 33.7, "unit": "%"},
      {"measurement": "inhibition at 10 µM", "setting": "CAMK4", "result": 20.1, "unit": "%"},
      {"measurement": "inhibition at 10 µM", "setting": "ABL1 Y253F", "result": 2.5, "unit": "%"}
    ]},
    {"smiles": "CC1(C)CC(=O)c2c(SC3CCCC3)sc(-c3cc[nH]n3)c2C1", "note": "[Example 7, 3-(Cyclopentylsulfanyl)-6,6-dimethyl-1-(1H-pyrazol-3-yl)-6,7-dihydro-2-benzothiophen-4(5H)-one]", "values": [
      {"measurement": "inhibition at 10 µM", "setting": "CDK2", "result": 2.1, "unit": "%"},
      {"measurement": "inhibition at 10 µM", "setting": "PRKCG", "result": 2.3, "unit": "%"},
      {"measurement": "inhibition at 10 µM", "setting": "FGFR2 N549H", "result": -5.8, "unit": "%"},
      {"measurement": "inhibition at 10 µM", "setting": "EGFR T790M", "result": -1.9, "unit": "%"},
      {"measurement": "inhibition at 10 µM", "setting": "SGK", "result": -1.3, "unit": "%"},
      {"measurement": "inhibition at 10 µM", "setting": "CDK1/CYCB1", "result": -6.7, "unit": "%"},
      {"measurement": "inhibition at 10 µM", "setting": "PDGFRB", "result": -1.4, "unit": "%"},
      {"measurement": "inhibition at 10 µM", "setting": "LTK", "result": 19.5, "unit": "%"},
      {"measurement": "inhibition at 10 µM", "setting": "EPHA5", "result": 1.5, "unit": "%"},
      {"measurement": "inhibition at 10 µM", "setting": "MARK1", "result": -0.6, "unit": "%"},
      {"measurement": "inhibition at 10 µM", "setting": "AXL", "result": 12.3, "unit": "%"},
      {"measurement": "inhibition at 10 µM", "setting": "ARG", "result": 8.6, "unit": "%"},
      {"measurement": "inhibition at 10 µM", "setting": "P38A", "result": 0.6, "unit": "%"},
      {"measurement": "inhibition at 10 µM", "setting": "CHK2", "result": 3.7, "unit": "%"},
      {"measurement": "inhibition at 10 µM", "setting": "EPHA2", "result": 0.7, "unit": "%"},
      {"measurement": "inhibition at 10 µM", "setting": "ABL H396P", "result": 3.1, "unit": "%"},
      {"measurement": "inhibition at 10 µM", "setting": "RET Y791F", "result": 11.1, "unit": "%"},
      {"measurement": "inhibition at 10 µM", "setting": "PIM-3", "result": 8.2, "unit": "%"},
      {"measurement": "inhibition at 10 µM", "setting": "ROS", "result": 42.7, "unit": "%"},
      {"measurement": "inhibition at 10 µM", "setting": "CAMK4", "result": -1.5, "unit": "%"},
      {"measurement": "inhibition at 10 µM", "setting": "ABL1 Y253F", "result": 10.6, "unit": "%"}
    ]}
  ]
}
